Structures are written as SMILES. The source made the active and inactive calls. No cut-off for these calls is given here.

Consider four compounds from ChEMBL document CHEMBL4393699, “Ligand retargeting by binding site analogy” (Eur J Med Chem, 2019).

The target in series [1] is T1, Beta-secretase 1 (Homo sapiens, UniProt P56817). In words: Inhibition of BACE1 (unknown origin) at 200 uM using HiLyte Fluo488/QXL-520 as substrate by FRET assay.
Series [2] deals with T1, Beta-secretase 1. In words: Inhibition of BACE1 (unknown origin) using HiLyte Fluo488/QXL-520 as substrate by FRET assay.
Series [3] has as its system HeLa. In words: Antiproliferative activity against human HeLa cells assessed as reduction in cell growth incubated for 72 hrs by resazurin dye based fluorescent assay. Background: The colour change of resazurin is a common sign of viable cells or microbes.
For series [4], the target named is Voltage-gated inwardly rectifying potassium channel KCNH2 (Homo sapiens, UniProt Q12809). In words: Inhibition of fluorescently labeled tracer binding to human ERG at 200 uM by competitive binding assay.
Sequence of Voltage-gated inwardly rectifying potassium channel KCNH2 (Q12809 whole entry): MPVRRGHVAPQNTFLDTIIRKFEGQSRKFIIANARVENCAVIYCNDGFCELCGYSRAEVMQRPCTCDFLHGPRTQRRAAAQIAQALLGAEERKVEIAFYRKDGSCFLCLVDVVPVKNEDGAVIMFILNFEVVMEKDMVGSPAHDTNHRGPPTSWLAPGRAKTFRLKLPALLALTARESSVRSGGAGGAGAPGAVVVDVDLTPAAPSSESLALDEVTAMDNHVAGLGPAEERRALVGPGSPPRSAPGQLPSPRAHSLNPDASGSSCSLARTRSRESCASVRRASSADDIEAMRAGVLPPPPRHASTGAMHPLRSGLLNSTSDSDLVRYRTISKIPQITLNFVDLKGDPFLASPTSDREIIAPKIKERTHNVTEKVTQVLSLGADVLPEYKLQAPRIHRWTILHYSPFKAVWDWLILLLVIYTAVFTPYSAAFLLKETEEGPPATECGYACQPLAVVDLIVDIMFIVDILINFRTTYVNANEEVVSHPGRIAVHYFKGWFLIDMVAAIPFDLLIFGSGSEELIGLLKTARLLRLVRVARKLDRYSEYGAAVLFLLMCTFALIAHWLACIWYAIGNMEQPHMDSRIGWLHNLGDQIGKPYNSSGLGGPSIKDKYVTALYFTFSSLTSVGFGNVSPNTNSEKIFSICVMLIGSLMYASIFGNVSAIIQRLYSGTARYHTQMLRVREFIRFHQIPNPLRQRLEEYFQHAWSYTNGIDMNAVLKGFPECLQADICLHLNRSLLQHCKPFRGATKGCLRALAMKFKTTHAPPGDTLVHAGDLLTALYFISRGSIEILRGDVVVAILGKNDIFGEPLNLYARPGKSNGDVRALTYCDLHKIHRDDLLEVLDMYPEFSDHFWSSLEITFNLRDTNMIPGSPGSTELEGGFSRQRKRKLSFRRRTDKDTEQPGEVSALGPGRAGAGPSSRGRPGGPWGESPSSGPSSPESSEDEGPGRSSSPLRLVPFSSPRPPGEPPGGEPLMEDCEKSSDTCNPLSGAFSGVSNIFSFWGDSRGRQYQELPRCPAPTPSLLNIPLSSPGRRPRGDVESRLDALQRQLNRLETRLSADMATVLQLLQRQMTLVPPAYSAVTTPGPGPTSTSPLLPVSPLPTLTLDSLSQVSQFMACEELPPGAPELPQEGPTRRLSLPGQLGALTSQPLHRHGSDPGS
Series [5] is filed under the species Homo sapiens. In words: Selectivity ratio of IC50 for BACE1 (unknown origin) to IC50 for recombinant His-tagged […] (unknown origin) expressed in Escherichia coli BL21 (DE3) cells.

T1 sequence (P56817 whole entry): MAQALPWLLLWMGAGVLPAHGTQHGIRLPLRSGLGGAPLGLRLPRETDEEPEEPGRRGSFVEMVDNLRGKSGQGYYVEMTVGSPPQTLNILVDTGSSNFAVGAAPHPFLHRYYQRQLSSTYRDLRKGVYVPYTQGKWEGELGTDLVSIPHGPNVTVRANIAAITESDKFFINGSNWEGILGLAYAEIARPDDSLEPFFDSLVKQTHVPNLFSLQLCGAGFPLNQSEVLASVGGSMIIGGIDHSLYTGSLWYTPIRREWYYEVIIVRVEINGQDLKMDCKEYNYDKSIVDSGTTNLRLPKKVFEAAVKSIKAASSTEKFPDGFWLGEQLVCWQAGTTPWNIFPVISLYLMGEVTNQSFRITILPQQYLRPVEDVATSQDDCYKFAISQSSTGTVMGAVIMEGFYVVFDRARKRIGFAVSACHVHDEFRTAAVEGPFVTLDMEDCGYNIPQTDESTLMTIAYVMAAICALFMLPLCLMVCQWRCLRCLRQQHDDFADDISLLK

The IC50 is the concentration that inhibits the measured activity by half. Higher therefore signals weaker potency. The term GI50 denotes the concentration that inhibits growth by half. As to `Nc1nc2c(-c3ccncc3F)ccnc2[nH]1`, the inhibition result in series [1] is “inactive”. The compound further had an IC50 in series [2] of over 200 µM. In addition, the GI50 in series [3] was 30 to 90 µM. Moreover, the “inhibition (INH)” value in series [4] was “Not Active”.
On to `Nc1nc2ncccc2[nH]1`, for which the inhibition result in series [1] was “inactive”. The IC50 in series [2] is over 200 µM.
For the compound `NCCc1ccc(O)c(C2CCCCC2)c1`, in series [5], the Ratio IC50 amounted to 5.
For `Nc1nc(NC2CC2)cc(-c2cccc(Cl)c2Cl)n1`, the GI50 in series [3] was 3.8 µM.
